Assay results reported in patent US20240158446A1, “CYCLIC COMPOUND HAVING SELECTIVE INHIBITORY ACTION ON KRAS OVER HRAS AND NRAS” (CHUGAI SEIYAKU KABUSHIKI KAISHA, priority 2021, published 2024).

Tests used:
[1] = biological target: GDP-bound NRAS wild-type protein (Homo sapiens, UniProt P01111); experiment: Binding to NRAS by surface plasmon resonance (SPR), Single Cycle Kinetics; conditions: ratio of KD for GDP-bound NRAS wild-type protein to KD for KRAS, SPR
[2] = test system: human lung cancer strain NCI-H441; experiment: cells; conditions: NCI-H441, 96 h, read-out: NCI-H441 IC50 (nM), NCI-H441 cell proliferation, 4 days, CellTiter-Glo;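 note: cell proliferation inhibition after four days measured by CellTiter-Glo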
[3] = biological target: GDP-bound HRAS wild-type protein (Homo sapiens, UniProt P01112); experiment: Binding to HRAS by surface plasmon resonance (SPR), Single Cycle Kinetics; conditions: ratio of KD for GDP-bound HRAS wild-type protein to KD for KRAS, SPR
Sequence of GDP-bound HRAS wild-type protein (P01112 whole entry): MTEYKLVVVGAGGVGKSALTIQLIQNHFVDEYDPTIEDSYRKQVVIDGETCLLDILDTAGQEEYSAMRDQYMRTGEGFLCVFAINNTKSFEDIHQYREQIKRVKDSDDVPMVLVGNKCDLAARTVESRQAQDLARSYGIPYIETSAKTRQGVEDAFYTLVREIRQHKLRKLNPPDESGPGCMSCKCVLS

Sequence of GDP-bound NRAS wild-type protein (P01111 whole entry): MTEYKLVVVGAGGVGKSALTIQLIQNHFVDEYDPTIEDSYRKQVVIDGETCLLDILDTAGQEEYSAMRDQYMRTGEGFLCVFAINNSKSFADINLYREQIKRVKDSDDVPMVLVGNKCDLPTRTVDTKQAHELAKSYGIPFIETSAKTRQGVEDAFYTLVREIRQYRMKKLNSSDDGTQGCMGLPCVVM

| SMILES | NRAS/KRAS (KD ratio) [1] | IC50 [2] [nM] | HRAS/KRAS (KD ratio) [3] |
| --- | --- | --- | --- |
| CCCN(C)C(=O)[C@@H]1CC(=O)N(C)[C@@H](CC(F)F)C(=O)N[C@@H]([C@@H](C)CC)C(=O)N(C)CC(=O)N(C)[C@H]2C/C=C\CCN(C2=O)[C@@H](Cc2ccc(C(F)(F)F)cc2)C(=O)N(C)CC(=O)N[C@@H](CCc2ccc(C(F)(F)F)c(OC)c2)C(=O)N2C[C@@H](C)C[C@H]2C(=O)NC2(CCC2)C(=O)N(C)[C@@H](C2CCCC2)C(=O)N1C [PP2024] | A (a compound having 10 or more and less than 20 is denoted as A) | 10.1 | B (a compound having 3 or more and less than 10 is denoted as B) |
| CC[C@H](C)[C@@H]1NC(=O)[C@H](CC(C)C)N(C)C(=O)C[C@@H](C(=O)N(C)C)N(C)C(=O)[C@H](C2CCCC2)N(C)C(=O)C2(CCC2)NC(=O)[C@@H]2C[C@H](C)CN2C(=O)[C@H](CCc2ccc(C(F)(F)F)c(Cl)c2)NC(=O)CN(C)C(=O)[C@H](Cc2ccc(C)cc2)N2CC/C=C\C[C@@H](C2=O)N(C)C(=O)CN(C)C1=O [PP1852] | A (a compound having 10 or more and less than 20 is denoted as A) | 6 | B (a compound having 3 or more and less than 10 is denoted as B) |
| CCC[C@H]1C(=O)N[C@@H]([C@@H](C)CC)C(=O)N(C)CC(=O)N(C)[C@H]2C/C=C\CCN(C2=O)[C@@H](Cc2ccc(C)cc2)C(=O)N(C)CC(=O)N[C@@H](CCc2ccc(C(F)(F)F)c(OC)c2)C(=O)N2C[C@@H](C)C[C@H]2C(=O)NC2(CCC2)C(=O)N(C)[C@@H](C2CCCC2)C(=O)N(C)[C@H](C(=O)N(C)CC)CC(=O)N1C [PP1840] | A (a compound having 10 or more and less than 20 is denoted as A) | 26.8 | B (a compound having 3 or more and less than 10 is denoted as B) |
| CCCN(C)C(=O)[C@@H]1CC(=O)N(C)[C@@H](CC)C(=O)N[C@@H]([C@@H](C)CC)C(=O)N(C)CC(=O)N(C)[C@H]2C/C=C\CCN(C2=O)[C@@H](Cc2ccc(C(F)(F)F)cc2)C(=O)N(C)CC(=O)N[C@@H](CCc2ccc(C(F)(F)F)c(OC)c2)C(=O)N2C[C@H](OCC)C[C@H]2C(=O)NC2(CC(C)(C)C2)C(=O)N(C)[C@@H](C2CCCC2)C(=O)N1C [PP1654] | A (a compound having 10 or more and less than 20 is denoted as A) | 2.5 | A (a compound having 10 or more and less than 20 is denoted as A) |
| CCCN(C)C(=O)[C@@H]1CC(=O)N(C)[C@@H](CCOC)C(=O)N[C@@H]([C@@H](C)CC)C(=O)N(C)CC(=O)N(C)[C@H]2C/C=C\CCN(C2=O)[C@@H](Cc2ccc(C(F)(F)F)cc2)C(=O)N(C)CC(=O)N[C@@H](CCc2ccc(C(F)(F)F)c(OC)c2)C(=O)N2C[C@@H](C)C[C@H]2C(=O)NC2(CCC2)C(=O)N(C)[C@@H](C2CCCC2)C(=O)N1C [PP2029] | A (a compound having 10 or more and less than 20 is denoted as A) | 18.9 | B (a compound having 3 or more and less than 10 is denoted as B) |
| CC[C@H](C)[C@@H]1NC(=O)[C@H](CC)N(C)C(=O)C[C@@H](C(=O)N(C)C)N(C)C(=O)[C@H](C2CCCC2)N(C)C(=O)C2(CCC2)N(C)C(=O)[C@@H]2CCCN2C(=O)[C@H](CCc2cc(F)c(C(F)(F)F)c(F)c2)NC(=O)CN(C)C(=O)[C@H](Cc2ccc(C)cc2)N2CC/C=C\C[C@@H](C2=O)N(C)C(=O)CN(C)C1=O [PP1782] | A (a compound having 10 or more and less than 20 is denoted as A) | 6.7 | B (a compound having 3 or more and less than 10 is denoted as B) |
| CC[C@H](C)[C@@H]1NC(=O)[C@H](CC2CC2)N(C)C(=O)C[C@@H](C(=O)N(C)CC)N(C)C(=O)[C@H](C2CCCC2)N(C)C(=O)C2(CC(C)(C)C2)NC(=O)[C@@H]2C[C@H](C)CN2C(=O)[C@H](CCc2ccc(C(F)(F)F)c(OC)c2)NC(=O)CN(C)C(=O)[C@H](Cc2ccc(C)cc2)N2CC/C=C\C[C@@H](C2=O)N(C)C(=O)CN(C)C1=O [PP1899] | A (a compound having 10 or more and less than 20 is denoted as A) | 15.1 | B (a compound having 3 or more and less than 10 is denoted as B) |
| CC[C@H](C)[C@@H]1NC(=O)[C@H](C2CC2)N(C)C(=O)C[C@@H](C(=O)N(C)C)N(C)C(=O)[C@H](C2CCCC2)N(C)C(=O)C2(CCC2)N(C)C(=O)[C@@H]2C[C@@H](C)CN2C(=O)[C@H](CCc2cc(F)c(C(F)(F)F)c(F)c2)NC(=O)CN(C)C(=O)[C@H](Cc2ccc(C)cc2)N2CC/C=C\C[C@@H](C2=O)N(C)C(=O)CN(C)C1=O [PP1788] | B (a compound having 3 or more and less than 10 is denoted as B) | 6.2 | B (a compound having 3 or more and less than 10 is denoted as B) |
| CC[C@H](C)[C@@H]1NC(=O)[C@H](CC(C)C)N(C)C(=O)C[C@@H](C(=O)N(C)C)N(C)C(=O)[C@H](C2CCCC2)N(C)C(=O)C2(CCC2)NC(=O)[C@@H]2C[C@H](C)CN2C(=O)[C@H](CCc2ccc(C(F)(F)F)c(OC)c2)NC(=O)CN(C)C(=O)[C@H](Cc2ccc(C)cc2)N2CC/C=C\C[C@@H](C2=O)N(C)C(=O)CN(C)C1=O [PP1865] | A (a compound having 10 or more and less than 20 is denoted as A) | 36 | B (a compound having 3 or more and less than 10 is denoted as B) |
| CC[C@H](C)[C@@H]1NC(=O)[C@H](CC2CCC2)N(C)C(=O)C[C@@H](C(=O)N(C)C)N(C)C(=O)[C@H](C2CCCC2)N(C)C(=O)C2(CCC2)N(C)C(=O)[C@@H]2C[C@@H](C)CN2C(=O)[C@H](CCc2cc(F)c(C(F)(F)F)c(F)c2)NC(=O)CN(C)C(=O)[C@H](Cc2ccc(C)cc2)N2CC/C=C\C[C@@H](C2=O)N(C)C(=O)CN(C)C1=O [PP1803] | A (a compound having 10 or more and less than 20 is denoted as A) | 7.6 | B (a compound having 3 or more and less than 10 is denoted as B) |
| CCC[C@H]1C(=O)N[C@@H]([C@@H](C)CC)C(=O)N(C)CC(=O)N(C)[C@H]2C/C=C\CCN(C2=O)[C@@H](Cc2ccc(C)cc2)C(=O)N(C)CC(=O)N[C@@H](CCc2cc(F)c(C(F)(F)F)c(F)c2)C(=O)N2CCC[C@H]2C(=O)N(C)C2(CCC2)C(=O)N(C)[C@@H](C2CCCC2)C(=O)N(C)[C@H](C(=O)N(C)C)CC(=O)N1C [PP1794] | A (a compound having 10 or more and less than 20 is denoted as A) | 8.7 | B (a compound having 3 or more and less than 10 is denoted as B) |
| CC[C@H](C)[C@@H]1NC(=O)[C@H](C2CC2)N(C)C(=O)C[C@@H](C(=O)N(C)CC)N(C)C(=O)[C@H](C2CCCC2)N(C)C(=O)C2(CC(C)(C)C2)NC(=O)[C@@H]2C[C@H](C)CN2C(=O)[C@H](CCc2cc(F)c(C(F)(F)F)c(F)c2)NC(=O)CN(C)C(=O)[C@H](Cc2ccc(C(F)(F)F)cc2)N2CC/C=C\C[C@@H](C2=O)N(C)C(=O)CN(C)C1=O [PP1980] | A (a compound having 10 or more and less than 20 is denoted as A) | 30.1 | B (a compound having 3 or more and less than 10 is denoted as B) |
| CC[C@H](C)[C@@H]1NC(=O)[C@H](CC2CC2)N(C)C(=O)C[C@@H](C(=O)N(C)C)N(C)C(=O)[C@H](C2CCCC2)N(C)C(=O)C2(CCC2)N(C)C(=O)[C@@H]2CCCN2C(=O)[C@H](CCc2cc(F)c(C(F)(F)F)c(F)c2)NC(=O)CN(C)C(=O)[C@H](Cc2ccc(C)cc2)N2CC/C=C\C[C@@H](C2=O)N(C)C(=O)CN(C)C1=O [PP1796] | A (a compound having 10 or more and less than 20 is denoted as A) | 5.3 | B (a compound having 3 or more and less than 10 is denoted as B) |
| CC[C@H](C)[C@@H]1NC(=O)[C@H](CC(C)C)N(C)C(=O)C[C@@H](C(=O)N(CC)CC)N(C)C(=O)[C@H](C2CCCC2)N(C)C(=O)C2(CCC2)NC(=O)[C@@H]2C[C@@H](C)CN2C(=O)[C@H](CCc2ccc(C(F)(F)F)c(OC)c2)NC(=O)CN(C)C(=O)[C@H](Cc2ccc(C)cc2)N2CC/C=C\C[C@@H](C2=O)N(C)C(=O)CN(C)C1=O [PP1849] | A (a compound having 10 or more and less than 20 is denoted as A) | 37.1 | A (a compound having 10 or more and less than 20 is denoted as A) |
| CCC[C@H]1C(=O)N[C@@H]([C@@H](C)CC)C(=O)N(C)CC(=O)N(C)[C@H]2C/C=C\CCN(C2=O)[C@@H](Cc2ccc(C)cc2)C(=O)N(C)CC(=O)N[C@@H](CCc2ccc(C(F)(F)F)c(OC)c2)C(=O)N2C[C@@H](C)C[C@H]2C(=O)NC2(CC(C)(C)C2)C(=O)N(C)[C@@H](C2CCCC2)C(=O)N(C)[C@H](C(=O)N(C)C)CC(=O)N1C [PP1888] | A (a compound having 10 or more and less than 20 is denoted as A) | 3.5 | B (a compound having 3 or more and less than 10 is denoted as B) |
| CC[C@H](C)[C@@H]1NC(=O)[C@H](CC2CC2)N(C)C(=O)C[C@@H](C(=O)N(C)C)N(C)C(=O)[C@H](C2CCCC2)N(C)C(=O)C2(CCC2)NC(=O)[C@@H]2C[C@H](C)CN2C(=O)[C@H](CCc2ccc(C(F)(F)F)c(OC)c2)NC(=O)CN(C)C(=O)[C@H](Cc2ccc(C)cc2)N2CC/C=C\C[C@@H](C2=O)N(C)C(=O)CN(C)C1=O [PP1861] | A (a compound having 10 or more and less than 20 is denoted as A) | 25.7 | B (a compound having 3 or more and less than 10 is denoted as B) |
